IC50 data for eight compounds are collected here from patent US11530244B2, “Cyclic polypeptides for PCSK9 inhibition” (priority 2018, dated 2022).

The assay concerns the target PCSK9 (Homo sapiens (Human), UniProt Q8NBP7). Briefly: PCSK9 Alexa FRET Standard assay (displacement of AlexaFluor647 tagged cyclic peptide Reagent A). In kind it is binding. The settings on record: PCSK9 Alexa FRET Standard assay, 0.5 nM PCSK9, 20 nM AF cyclic peptide Reagent A; read-out: IC50. How it is done:
A solution containing 1 nM biotinylated PCSK9+2.5 nM Lance Streptavidin Europium (Strep-Eu) was made in 50 mM HEPES pH 7.4, 0.15 M NaCl, 5 mM CaCl2), 0.01% BSA, and 0.01% Surfactant P20. A separate solution containing 40 nM of the AlexaFluor tagged cyclic peptide was made in the same buffer system. An Echo was used to transfer 0.750 ul of compound to an assay plate followed by the addition of 15 ul of PCSK9+Stept-Eu and 15 ul of AF peptide. The final assay volume was 30.750 ul containing 0.5 nM PCSK9, 1.25 nM Strep-Eu, and 20 nM AF cyclic peptide. The reaction was incubated at room temperature for at least two hours prior to fluorescence measurements using an Envision Multilabel Reader. IC50 values were determined by fitting data to a sigmoidal dose-response curve using nonlinear regression. Ki was then calculated from the IC50 and the KD of AF cyclic peptide. Counts (B-counts) of the europium-labeled PCSK9 were followed to observe if compounds were […]. A fall off of the B-counts likely indicated a false positive of inhibition. Data from this procedure was reported as “A=‘numerical value’ (nanomolar)”

pIC50: −log10 of the molar value. Starred links: 1 amine or outer side, 2 acyl side, 3 side chain; linkers in the order of their positions; H or OH if unused. Positions of bridges follow the written chain, without caps; N, C: chain ends. Non-standard residues stand in square brackets, D forms with d. Residues, ends and D or L forms follow the SMILES beside them. Groups on a side chain read outwards from the residue. *: point of attachment. Ala(imidazol-2-yl) = N[C@@H](Cc1ncc[nH]1)C(=O)O; Trp(5-F) = N[C@@H](Cc1c[nH]c2ccc(F)cc12)C(=O)O; dPro(cis-4-NH2) = N[C@H]1CN[C@@H](C(=O)O)C1; Pro(cis-4-F) = O=C(O)[C@@H]1C[C@H](F)CN1; X4 = O=C(CCSCc1cccc(CSCCN[*:1])c1)[*:2]; X40 = FC(F)(F)c1cc(C[*:1])cc(C[*:2])c1; γGlu = O=C(O)[C@H](CCC(=O)[*:2])N[*:1]; mXylylene = c1cc(C[*:1])cc(C[*:2])c1; AEF = NCCOc1ccc(C[C@H](N)C(=O)O)cc1; Lys(Me2) = CN(C)CCCC[C@H](N)C(=O)O; Palmitoyl = CCCCCCCCCCCCCCCC(=O)*; αMeP = C[C@@]1(C(=O)O)CCCN1; Isovaleryl = CC(C)CC(=O)*; Dab = NCC[C@H](N)C(=O)O; AEEA = NCCOCCOCC(=O)O; X2 = O=C(C[*:2])[*:1]; Mpa = O=C(O)CCS

PCSK9, sequence (Q8NBP7 153-692): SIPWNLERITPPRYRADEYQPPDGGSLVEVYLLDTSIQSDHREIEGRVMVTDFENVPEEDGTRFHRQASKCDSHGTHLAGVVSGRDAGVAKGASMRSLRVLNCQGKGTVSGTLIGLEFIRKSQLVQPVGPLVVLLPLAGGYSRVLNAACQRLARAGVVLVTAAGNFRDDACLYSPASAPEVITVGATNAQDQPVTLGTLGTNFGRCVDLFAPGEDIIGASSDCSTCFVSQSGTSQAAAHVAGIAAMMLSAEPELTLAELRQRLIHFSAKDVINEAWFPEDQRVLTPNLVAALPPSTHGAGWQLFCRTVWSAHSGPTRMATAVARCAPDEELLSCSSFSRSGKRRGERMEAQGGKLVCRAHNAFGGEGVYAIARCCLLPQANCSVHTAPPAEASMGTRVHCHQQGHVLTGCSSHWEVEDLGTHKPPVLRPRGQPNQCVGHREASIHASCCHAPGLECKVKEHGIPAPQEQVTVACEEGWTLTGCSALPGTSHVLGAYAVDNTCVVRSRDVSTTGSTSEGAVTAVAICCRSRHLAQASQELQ

For the compound `COc1ccc(C[C@@H]2NC(=O)[C@H](Cc3ncc[nH]3)NC(=O)[C@H](CC(=O)O)NC(=O)[C@H](Cc3c[nH]c4ccc(F)cc34)NC(=O)[C@H](Cc3c[nH]c4ccc(F)cc34)NC(=O)[C@@H](C)NC(=O)[C@H](CCCCN(C)C)NC(=O)CCSCc3cccc(c3)CSCCNC(=O)[C@]3(C)CCCN3C2=O)cc1` [Compound 464] (cyclo(D[Ala(imidazol-2-yl)]Y(Me)[αMeP][X4][Lys(Me2)][dA][Trp(5-F)][Trp(5-F)])), the pIC50 is 4.30 to 4.68.
To `COc1ccc(C[C@@H]2NC(=O)[C@H]([C@@H](C)O)NC(=O)[C@@H]3C[C@H](F)CN3C(=O)[C@H](Cc3c[nH]c4ccc(F)cc34)NC(=O)[C@H](Cc3c[nH]c4ccc(F)cc34)NC(=O)[C@@H](C)NC(=O)[C@H](CCCCN)NC(=O)[C@@H](NC(C)=O)CCNC(=O)COc3ccc(cc3)C[C@@H](C(N)=O)NC(=O)[C@]3(C)CCCN3C2=O)cc1` [Compound 075] (Ac-[Dab]K[dA][Trp(5-F)][Trp(5-F)][Pro(cis-4-F)]TY(Me)[αMeP]Y-NH2; linker 1-10 via X2) belongs 4.30 to 4.68; to `CCCCCCCCCCCCCCCC(=O)N[C@@H](CCC(=O)NCCOCCOCC(=O)NCCOCCOCC(=O)NCC[C@H](NC(=O)CNC(=O)CNC(=O)[C@@H]1CSCc2cccc(c2)CSCCC(=O)N[C@@H](CCCCN)C(=O)N[C@H](C)C(=O)N[C@@H](Cc2c[nH]c3ccc(F)cc23)C(=O)N[C@@H](Cc2c[nH]c3ccc(F)cc23)C(=O)N[C@@H](CC(=O)O)C(=O)N[C@@H](Cc2cnc[nH]2)C(=O)N[C@@H](Cc2ccc(O)cc2)C(=O)N2CCC[C@@]2(C)C(=O)N1)C(N)=O)C(=O)O` [Compound 439] ([Mpa]K[dA][Trp(5-F)][Trp(5-F)]DHY[αMeP]CGG[Dab]([AEEA-AEEA-γGlu-Palmitoyl])-NH2; linker 1-10 via mXylylene), 4.30 to 4.68.
The result for `COc1ccc(C[C@@H]2NC(=O)[C@H]([C@@H](C)O)NC(=O)[C@@H]3CCCN3C(=O)[C@H](Cc3c[nH]c4ccc(F)cc34)NC(=O)[C@H](Cc3c[nH]c4ccc(F)cc34)NC(=O)[C@@H](C)NC(=O)[C@H](CCCCN)NC(=O)CCSCc3cc(cc(C(F)(F)F)c3)CSC[C@@H](C(N)=O)NC(=O)[C@]3(C)CCCN3C2=O)cc1` [Compound 073] ([Mpa]K[dA][Trp(5-F)][Trp(5-F)]PTY(Me)[αMeP]C-NH2; linker 1-10 via X40) reads 4.30 to 4.68.
In the case of `COc1ccc(C[C@@H]2NC(=O)[C@@H]([C@H](C)O)NC(=O)[C@H]3C[C@@H](N)CN3C(=O)[C@H](Cc3c[nH]c4ccc(F)cc34)NC(=O)[C@H](Cc3c[nH]c4ccc(F)cc34)NC(=O)[C@@H](C)NC(=O)[C@H](CCCCN)NC(=O)CCSCc3cccc(c3)CSCCNC(=O)[C@]3(C)CCCN3C2=O)cc1` [Compound 083] (cyclo(K[dA][Trp(5-F)][Trp(5-F)][dPro(cis-4-NH2)][dT]Y(Me)[αMeP][X4])), the pIC50 is 6.00 to 7.00.
To `COc1ccc(C[C@@H]2NC(=O)[C@H]([C@@H](C)O)NC(=O)[C@@H]3C[C@H](F)CN3C(=O)[C@H](Cc3c[nH]c4ccc(F)cc34)NC(=O)[C@H](Cc3c[nH]c4ccc(F)cc34)NC(=O)[C@@H](C)NC(=O)[C@H](CCCCN)NC(=O)[C@@H](NC(=O)CC(C)C)CC(=O)NCCOc3ccc(cc3)C[C@@H](C(N)=O)NC(=O)[C@]3(C)CCCN3C2=O)cc1` [Compound 107] (Isovaleryl-DK[dA][Trp(5-F)][Trp(5-F)][Pro(cis-4-F)]TY(Me)[αMeP][AEF]-NH2; lactam 1-10) belongs 6.00 to 7.00.
The result for `COc1ccc(C[C@@H]2NC(=O)[C@H]([C@@H](C)O)NC(=O)[C@@H]3C[C@H](F)CN3C(=O)[C@H](Cc3c[nH]c4ccc(F)cc34)NC(=O)[C@H](Cc3c[nH]c4ccc(F)cc34)NC(=O)[C@@H](C)NC(=O)[C@H](NC(C)=O)CCC(=O)NCCOc3ccc(cc3)C[C@@H](C(N)=O)NC(=O)[C@]3(C)CCCN3C2=O)cc1` [Compound 056] (Ac-[dE][dA][Trp(5-F)][Trp(5-F)][Pro(cis-4-F)]TY(Me)[αMeP][AEF]-NH2; lactam 1-9) reads 4.30 to 4.68; that for `COc1ccc(C[C@@H]2NC(=O)[C@H](Cc3ncc[nH]3)NC(=O)[C@H](CC(=O)O)NC(=O)[C@H](Cc3c[nH]c4ccc(F)cc34)NC(=O)[C@H](Cc3c[nH]c4ccc(F)cc34)NC(=O)[C@@H](C)NC(=O)[C@H](CCC(N)=O)NC(=O)CCSCc3cccc(c3)CSCCNC(=O)[C@]3(C)CCCN3C2=O)cc1` [Compound 446] (cyclo(D[Ala(imidazol-2-yl)]Y(Me)[αMeP][X4]Q[dA][Trp(5-F)][Trp(5-F)])), 4.92 to 6.00.

Broadly, the pIC50 is the IC50 on a negative log10 scale, so that one unit is a factor of ten.
